Assay results published in article PMC12287357, “Bacterial effectors mediate kinase reprogramming through mimicry of conserved eukaryotic motifs” (EMBO Reports, 2025).
Square brackets hold non-standard residues; d marks the D form. Peptide text beside a SMILES is read from it. pY = N[C@@H](Cc1ccc(OP(=O)(O)O)cc1)C(=O)O; pS = N[C@@H](COP(=O)(O)O)C(=O)O

Molecular target: T1, His6STAT3^127-715 (Homo sapiens, UniProt P40763)
T1 construct: made in house; host or cells: E. coli BL21 (DE3)
Test: Biolayer interferometry (BLI): SteE^138-148 phosphopeptides binding to recombinant STAT3
Details: Octet R8, 25 °C, biotinylated peptide immobilised on streptavidin sensors, pH 7.7, 0.005% Tween-20, steady-state one-site fit, read-out: Kd (affinity of SteE^138-148 phosphorylated peptide for STAT3)
Experimental: Recombinant Salmonella Typhimurium His6-SteE^ΔN20 and human His6-STAT3^127-715 were ligated into pET49 vector using Gibson Assembly; the N-terminal His6-tag is cleavable with HRV 3 C protease.
Binding affinities of His6-STAT3^127-715 to SteE peptides were derived from […] measured on an Octet R8 system (Sartorius) at 25 °C. Biotinylated SteE peptides were synthesised by the Chemical Biology Science Technology Platform at the Francis Crick Institute and dissolved from lyophilised stock in the respective protein buffer to which 0.005% Tween-20 was added (BLI buffer). Appropriate serial dilutions of His6-STAT3^127-715 were prepared in 25 mM HEPES, 200 mM NaCl, 10 mM MgCl2, 0.5 mM TCEP at pH 7.7. SteE peptides were immobilised on Streptavidin (SA) sensors at 0.2 µg/mL by incubation until the linear signal increase started to plateau (up to 160 s), followed by a sensor wash in BLI buffer for 50 s to stabilise the baseline. Association was recorded by incubating the sensors with His6-STAT3^127-715 for 300 s. Subsequent dissociation in BLI buffer was followed for up to 300 s. Data were acquired using Octet BLI Discovery software 12.2.2.20 and processed with Octet BLI Analysis software 12.2.2.4 by subtraction of reference wells without protein and y alignment of the data to the baseline. […]

T1 sequence (P40763 127-715): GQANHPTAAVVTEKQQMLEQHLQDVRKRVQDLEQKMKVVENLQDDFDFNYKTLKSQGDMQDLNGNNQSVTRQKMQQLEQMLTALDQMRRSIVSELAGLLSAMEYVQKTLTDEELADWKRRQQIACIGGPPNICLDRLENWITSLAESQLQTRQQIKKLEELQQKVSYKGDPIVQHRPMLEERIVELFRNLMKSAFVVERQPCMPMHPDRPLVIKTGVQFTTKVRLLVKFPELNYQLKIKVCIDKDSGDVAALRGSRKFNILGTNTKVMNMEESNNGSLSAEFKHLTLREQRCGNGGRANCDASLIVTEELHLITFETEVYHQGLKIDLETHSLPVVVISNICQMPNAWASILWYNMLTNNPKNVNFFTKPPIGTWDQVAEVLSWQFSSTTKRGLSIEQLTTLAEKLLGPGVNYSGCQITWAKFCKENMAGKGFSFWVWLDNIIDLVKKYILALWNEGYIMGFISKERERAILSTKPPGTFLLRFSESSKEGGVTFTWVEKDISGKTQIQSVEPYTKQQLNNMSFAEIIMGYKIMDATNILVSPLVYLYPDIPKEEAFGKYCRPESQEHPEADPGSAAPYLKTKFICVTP

For `CC[C@H](C)[C@H](NC(=O)[C@H](Cc1ccc(OP(=O)(O)O)cc1)NC(=O)CNC(=O)[C@H](COP(=O)(O)O)NC(=O)[C@@H]1CCCN1C(=O)[C@@H]1CCCN1C(=O)[C@@H](N)CC(N)=O)C(=O)N[C@@H](C)C(=O)N[C@@H](CCC(N)=O)C(=O)N[C@@H](Cc1ccc(O)cc1)C(=O)N[C@@H](CCCNC(=N)N)C(=O)O` [SteE_pS141pY143] (H-NPP[pS]G[pY]IAQYR-OH), the Kd was 1.4 ± 0.08 µM.
